Data: patent EP1770089A1, “Pyranodibenzofuran derivatives with antifungal and antibacterial activity” (priority 2005, dated 2007)
Converted amounts (≈) assume the structure as drawn. Where two headings read alike, the source gives them in different places.

How the values were obtained:
Type in all cases: cell-based
Candida albicans = assay: In vitro activity (MIC99) against Candida albicans; conditions: > 99 % inhibition of growth; for MIC99: Candida albicans, read-out: MIC99 C. albicans
Method: The antifungal activity of compounds 5, 9, and 11-22 against Candida albicans was analyzed by the measure of the MIC99 concentration (see Table 1). Table 1. In Vitro Activity against Candida albicans of pyranodibenzofuran derivatives

L1210 cells = assay: Cytotoxicity, MTA (Microculture Tetrazolium Assay) test; conditions: cytotoxicity on L1210 cells
Method: The cytotoxicity of compounds 5, 9, and 10-21 was determined in L1210 cells using the MTA (Microculture Tetrazolium Assay) test.

[1] = tested on: Mycobacterium smegmatis mc^2155; assay: Mycobacterial growth inhibition in liquid culture (MIC99); conditions: two-day's growth at 37°C, 99% decrease vs DMSO control; for MIC99: Mycolicibacterium smegmatis, MC2155|MC^2155, 48 h
[2] = tested on: Mycobacterium tuberculosis H37Rv; assay: Mycobacterial growth inhibition in liquid culture, CFU plating (MIC99); conditions: H37Rv, three weeks growth in 7H9, CFU on 7H11, NI = no inhibition at 1 mg/mL; for MIC99: Mycobacterium tuberculosis, H37RV, 504 h, read-out: MIC99 on M. tuberculosis
[3] = read-out: MIC99 on M. smegmatis, mc2155
[4] = mc2155, read-out: MIC99 on M. smegmatis

## CC1(C)Oc2ccc3oc4ccccc4c3c2C(=O)C1O (racemic) [Compound 13, (±)2,3-dihydro-2-hydroxy-3,3-dimethyl-1H-benzofuro[3,2-f][1]benzopyran-1-one]
Candida albicans
  MIC99: > 330 µg/mL
L1210 cells; Mus musculus, read-out: IC50
  IC50: 5.04 µg/mL (≈ 17.9 µM)

## CC(=O)O[C@@H]1c2c(ccc3oc4ccccc4c23)OC(C)(C)[C@H]1OC(C)=O (racemic) [Compound 19, (±)trans-1,2,-diacetoxy-1,2-dihydro-3,3-dimethyl-3H-benzofuro[3,2-f][1]benzopyran]
Candida albicans
  MIC99 C. albicans: > 300 µg/mL
[1]; mc2155
  MIC99 on M. smegmatis: 180 µg/mL (≈ 489 µM)
[2]
  MIC99 on M. tuberculosis: NI (No inhibition observed at the highest concentration tested (1 mg/mL))
L1210 cells
  IC50: 5.5005 µg/mL (≈ 14.9 µM)

## CC(=O)O[C@H]1c2cc3oc4ccccc4c3cc2OC(C)(C)[C@H]1OC(C)=O (racemic) [Compound 17, (±)cis-3,4-diacetoxy-3,4-dihydro-2,2-dimethyl-2H-benzofuro[2,3-g]-[1]-benzopyran]
Candida albicans
  MIC99: > 400 µg/mL
L1210 cells; Mus musculus, read-out: IC50
  IC50: 8.52 µg/mL (≈ 23.1 µM)

## CC(=O)O[C@@H]1c2c(ccc3oc4ccccc4c23)OC(C)(C)[C@@H]1OC(C)=O (racemic) [Compound 18, (±)cis-1,2-diacetoxy-1,2-dihydro-3,3-dimethyl-3H-benzofuro[3,2-f][1]benzopyran]
Candida albicans
  MIC99: > 300 µg/mL
L1210 cells; Mus musculus, read-out: IC50
  IC50: 9.35 µg/mL (≈ 25.4 µM)

## CC1(C)Oc2ccc3oc4ccccc4c3c2[C@@H](O)[C@@H]1O (racemic) [Compound 15, (±)trans-1,2,-dihydro-1,2-dihydroxy-3,3-dimethyl-3H-benzofuro[3,2-f][1]benzopyran]
Candida albicans
  MIC99 C. albicans: > 300 µg/mL
[1]; mc2155
  MIC99 on M. smegmatis: 30 µg/mL (≈ 106 µM)
[2]
  MIC99 on M. tuberculosis: NI (No inhibition observed at the highest concentration tested (1 mg/mL))
L1210 cells
  IC50: 12.3405 µg/mL (≈ 43.4 µM)

## C=C1Oc2ccc3oc4ccccc4c3c2C1(C)C [Compound 10, 1,2-dihydro-1,1-dimethyl-2-methylenebenzofuro[5,4-b]benzofuran]
Candida albicans
  MIC99: > 300 µg/mL
L1210 cells; Mus musculus, read-out: IC50
  IC50: 3.71 µg/mL (≈ 14.8 µM)

## Clc1ccc(COC(Cn2ccnc2)c2ccc(Cl)cc2Cl)c(Cl)c1 (stereo not drawn) [Miconazole, reference compound]
Candida albicans
  MIC99: 0.25 to 60 µg/mL (≈ 0.601 to 144 µM)

## (±)cis-4H-3a,4,12b-trihydro-2,2-dimethyl-1,3-dioxolo[4,5-h]benzofuro[3,2-g]benzopyran [Compound 21]
Candida albicans
  MIC99 C. albicans: > 400 µg/mL
L1210 cells
  IC50: 12.8535 µg/mL

## CC1(C)Oc2cc3c(cc2[C@H](O)[C@@H]1O)oc1ccccc13 (racemic) [Compound 11, (±)cis-3,4-dihydro-3,4-dihydroxy-2,2-dimethyl-2H-benzofuro[2,3-g]-[1]-benzopyran]
Candida albicans
  MIC99: 27 µg/mL (≈ 95 µM)
[1]; [3]
  MIC99: 30 to 60 µg/mL (≈ 106 to 211 µM)
[1]; [4]
  MIC99: 60 µg/mL (≈ 211 µM)
[2]
  MIC99: > 1000 µg/mL
L1210 cells; Mus musculus, read-out: IC50
  IC50: 13 µg/mL (≈ 45.7 µM)

## CC1(C)Oc2ccc3oc4ccccc4c3c2[C@@H](O)[C@H]1O (racemic) [Compound 12, (±)cis-1,2-dihydro-1,2-dihydroxy-3,3-dimethyl-3H-benzofuro[3,2-f][1]benzopyran]
Candida albicans
  MIC99: > 160 µg/mL
[1]; [3]
  MIC99: 30 to 60 µg/mL (≈ 106 to 211 µM)
[1]; [4]
  MIC99: 30 µg/mL (≈ 106 µM)
[2]
  MIC99: 60 µg/mL (≈ 211 µM)
L1210 cells; Mus musculus, read-out: IC50
  IC50: 1.3 µg/mL (≈ 4.57 µM)

## CC(=O)CC1(O)C(=O)c2c(ccc3oc4ccccc4c23)OC1(C)C (racemic) [Compound 14, (±)2,3-dihydro-2-hydroxy-3,3-dimethyl-2-(2-oxopropyl)-1Hbenzofuro[3,2f][1]benzopyran-1-one]
Candida albicans
  MIC99 C. albicans: 150 µg/mL (≈ 443 µM)
L1210 cells
  IC50: 18.981 µg/mL (≈ 56.1 µM)

## CC(=O)OC1C(=O)c2c(ccc3oc4ccccc4c23)OC1(C)C (racemic) [Compound 20, (±)2-acetoxy-2,3-dihydro-2-hydro-3,3-dimethyl-1H-benzofuro[3,2-f][1]benzopyran-1-one]
Candida albicans
  MIC99 C. albicans: > 280 µg/mL
L1210 cells
  IC50: 28.5 µg/mL (≈ 87.9 µM)
